# According to patent US10239856B2, “Synthesis of resorcylic acid lactones useful as therapeutic agents” (UNIVERSITY DE STRASBOURG, priority 2008, dated 2019):
# Read-outs that look alike come from different tables or passages of the source.
# How the values were obtained:
# HSP90α = HSP90α (Homo sapiens, UniProt P07900); assay: Affinity to HSP90α; format: binding
# Her-2 (HSP90 client) = Her-2 (HSP90 client) degradation (client depletion); format: cell-based
# Procedure: A number of the compounds of the invention were tested for affinity to HSP90α (see Kim et al., J. Biomol. Screen., 2004, 9, 375), Her-2 (HSP90 client) degradation (see Xu et al., J. Biol. Chem., 2001, 276, 3702), and cytotoxicity against SKBr3 and HCC1954, two breast cancer cell lines which over express Her-2.
# SKBr3 = assay: Cytotoxicity against SKBr3 breast cancer cells; format: cell-based; details: Homo sapiens, SK-BR-3, first value of cell
# Procedure: (§1) Compounds of the invention were assayed for cytotoxicity in HCC1954 and SK-BR-3 tumor cells.
# HCC1954 = assay: Cytotoxicity against HCC1954 breast cancer cells; format: cell-based; details: Homo sapiens, second value of cell
# Procedure: as §1
# [1] = read-out: Client Depletion; Her-2 degradation
# [2] = Her-2 degradation; read-out: Client Depletion
IC50 (HSP90α; HSP90 affinity) [nM],IC50 (Her-2 (HSP90 client); [1]) [nM],IC50 (HSP90α; read-out: HSP90 affinity) [nM],IC50 (Her-2 (HSP90 client); [2]) [nM],Compound,IC50 (SKBr3) [nM],IC50 (HCC1954) [nM]
70,201,–,–,CC1CCN(C(=O)CON=C2/C=C/CC/C=C/CCOC(=O)c3c(O)cc(O)cc3C2)CC1 [compound 375],–,–
2240,> 10000,–,–,O=C1OCC/C=C/CC/C=C/C(=NOCC(=O)N2CCC(c3ccccc3)CC2)Cc2cc(O)cc(O)c21 [compound 376],–,–
–,–,< 52,–,C/C1=C\C(=NOCC(=O)N2CCCCC2)Cc2cc(O)cc(O)c2C(=O)O[C@H](C)C/C=C/CC1 [compound 336],–,–
1750,8970,–,–,CCCC1C/C=C/C(C)C/C=C/C(=NOCC(=O)N2CCCCC2)Cc2c(Cl)c(O)cc(O)c2C(=O)O1 (centres unmarked) [compound 365],–,–
–,–,90,250,O=C(CON=C1/C=C/CC/C=C/CCOC(=O)c2c(O)cc(O)c(Cl)c2C1)NC1CCCCC1 [13k],550,450
238,2030,–,–,CC1CCCC(C)N1C(=O)CON=C1/C=C/CC/C=C/CCOC(=O)c2c(O)cc(O)cc2C1 (centres unmarked) [compound 374],–,–
57,929,–,–,O=C(CON=C1/C=C/CC/C=C/CCOC(=O)c2c(O)cc(O)cc2C1)NCc1ccccc1 [compound 378],–,–
–,–,1800,> 10000,O=C1OCC/C=C/CC/C=C/C(=N\OCC(=O)N2CCCCC2)Cc2c(Cl)c(O)cc(O)c21 [14a],> 10000,5200
128,669,–,–,O=C1OCC/C=C/CC/C=C/C(=NOCC(=O)N2CC=CC2)Cc2cc(O)cc(O)c21 [compound 386],–,–
22,122,–,–,O=C1OCC/C=C/CC/C=C/C(=NOCC(=O)N2CC=CCC2)Cc2cc(O)cc(O)c21 [compound 382],–,–
196,730,–,–,CCN(CC)C(=O)CON=C1/C=C/CC/C=C/CCOC(=O)c2c(O)cc(O)cc2C1 [compound 357],–,–
116,708,–,–,O=C(CON=C1/C=C/CC/C=C/CCOC(=O)c2c(O)cc(O)cc2C1)NC1CCCCC1 [compound 383],–,–
1940,> 8800,–,–,CCCC1C/C=C/CCCCC(=NOCC(=O)N2CCCCC2)Cc2cc(O)cc(O)c2C(=O)O1 (centres unmarked) [compound 359],–,–
38,97,–,–,CC1/C=C/CCOC(=O)c2c(O)cc(O)cc2CC(=NOCC(=O)N2CCCCC2)/C=C/C1 (centres unmarked) [compound 370],–,–
155,454,–,–,CCCN(CCC)C(=O)CON=C1/C=C/CC/C=C/CCOC(=O)c2c(O)cc(O)cc2C1 [compound 389],–,–
–,–,182,3650,O=C1OCCC/C=C/CC/C=C/C(=NOCC(=O)N2CCCCC2)Cc2c(Cl)c(O)cc(O)c21 [compound 396],–,–
–,–,> 10000,> 10000,C=CCC/C=C/C(Cc1c(Cl)c(O)cc(O)c1C(=O)OCCC=C)=NOCC(=O)N1CCCCC1 [13m],> 10000,> 10000
219,509,–,–,O=C1OCC/C=C/CC/C=C/C(=NOCC(=O)N2CCCC2)Cc2cc(O)cc(O)c21 [compound 388],–,–
–,–,81,–,O=C1OCC/C=C/CCCCC(=NOCC(=O)N2CCCCC2)Cc2c(Cl)c(O)cc(O)c21 [13g],–,–

IC50 (HSP90α; HSP90 affinity) [nM],IC50 (Her-2 (HSP90 client); [1]) [nM],IC50 (HSP90α; read-out: HSP90 affinity) [nM],IC50 (Her-2 (HSP90 client); [2]) [nM],Compound,IC50 (SKBr3) [nM],IC50 (HCC1954) [nM]
124,588,–,–,O=C1OCC/C=C/CC/C=C/C(=NOCC(=O)N2CCOCC2)Cc2cc(O)cc(O)c21 [compound 380],–,–
204,900,–,–,CCN(CC)C(=O)CON=C1/C=C(\C)CC/C=C/C[C@@H](C)OC(=O)c2c(O)cc(O)cc2C1 [compound 351],–,–
900,> 10000,–,–,CCCC1C/C=C/CC/C(C)=C/C(=NOCC(=O)N(CC)CC)Cc2cc(O)cc(O)c2C(=O)O1 (centres unmarked) [compound 363],–,–
886,3070,–,–,CC1CCCCN1C(=O)CON=C1/C=C/CC/C=C/CCOC(=O)c2c(O)cc(O)cc2C1 (centres unmarked) [compound 372],–,–
4660,> 10000,–,–,CCCC1C/C=C/CC/C(C)=C/C(=NOCC(=O)N(CC)CC)Cc2cc(O)cc(O)c2C(=O)O1 (centres unmarked) [compound 362],–,–
110,5000,–,–,O=C1OCC/C=C/CC/C=C/C(=N\OCC(=O)N2CCCCC2)Cc2cc(O)cc(O)c21 [14b],> 10000,> 10000
–,–,68,2400,COC1CC/C=C/CCOC(=O)c2c(O)cc(O)c(Cl)c2C/C(=N\OCC(=O)N2CCCCC2)C1 (centres unmarked) [13f],1300,2800
–,–,390,7700,O=C(CON=C1/C=C/CC/C=C/CCOC(=O)c2c(O)cc(O)c(Cl)c2C1)NCCO [13h],7500,> 10000
–,–,599,> 10000,CC1/C=C/COC(=O)c2c(O)cc(O)c(Cl)c2CC(=NOCC(=O)N2CCCCC2)/C=C/C1 (centres unmarked) [compound 368],–,–
243,629,–,–,CCC1CCCCN1C(=O)CON=C1/C=C/CC/C=C/CCOC(=O)c2c(O)cc(O)cc2C1 (centres unmarked) [compound 371],–,–
162,627,–,–,CC(C)N(C(=O)CON=C1/C=C/CC/C=C/CCOC(=O)c2c(O)cc(O)cc2C1)C(C)C [compound 379],–,–
1720,> 10000,–,–,CC1/C=C/CCCOC(=O)c2c(O)cc(O)c(Cl)c2CC(=NOCC(=O)N2CCCCC2)/C=C/C1 (centres unmarked) [compound 367],–,–
432,980,–,–,C=C/C1=C\CC/C=C/C(=NOCC(=O)N2CCCCC2)Cc2c(Cl)c(O)cc(O)c2C(=O)OCC1 [compound 397],–,–
–,–,1200,–,CNC(=O)CON=C1/C=C/CC/C=C/CCOC(=O)c2c(O)cc(O)c(Cl)c2C1 [13i],> 10000,> 10000
154,677,–,–,CC1/C=C/C[C@@H](C)OC(=O)c2c(O)cc(O)c(Cl)c2CC(=NOCC(=O)N2CCCCC2)/C=C/C1 (some centres unmarked) [compound 369],–,–
–,–,> 10000,> 10000,O=C1OCC/C=C/CC/C=C/C(=NOCC(=O)N2CCNCC2)Cc2c(Cl)c(O)cc(O)c21 [13e],> 10000,> 10000
12,–,–,–,C[C@@H]1C/C=C/[C@@H](O)C/C=C/C(=N/OCC(=O)N2CCCCC2)Cc2cc(O)cc(O)c2C(=O)O1 [compound 457],–,–
587,> 10000,–,–,CCCC1C/C=C/CC/C=C/C(=NOCC(=O)N2CCCCC2)Cc2cc(O)cc(O)c2C(=O)O1 (centres unmarked) [compound 358],–,–
–,–,190,6500,COC(=O)CON=C1/C=C/CC/C=C/CCOC(=O)c2c(O)cc(O)c(Cl)c2C1 [13l],> 10000,> 10000

IC50 (HSP90α; HSP90 affinity) [nM],IC50 (Her-2 (HSP90 client); [1]) [nM],IC50 (HSP90α; read-out: HSP90 affinity) [nM],IC50 (Her-2 (HSP90 client); [2]) [nM],Compound,IC50 (SKBr3) [nM],IC50 (HCC1954) [nM]
70,512,–,–,O=C1OCC/C=C/CC/C=C/C(=NOCC(=O)N2CCSCC2)Cc2cc(O)cc(O)c21 [compound 384],–,–
5760,> 10000,–,–,O=C1OCC/C=C/CC/C=C/C(=NOCC(=O)N2CCC(Cc3ccccc3)CC2)Cc2cc(O)cc(O)c21 [compound 377],–,–
97,754,–,–,O=C1NCC/C=C/CC/C=C/C(=NOCC(=O)N2CCCCC2)Cc2c(Cl)c(O)cc(O)c21 [compound 395],–,–
196,805,–,–,CCCC1C/C=C/CC/C(C)=C/C(=NOCC(=O)N2CCCCC2)Cc2cc(O)cc(O)c2C(=O)O1 (centres unmarked) [compound 350],–,–
97,–,–,–,O=C1OCC/C=C/CC/C=C/C(=NOCC(=O)N2CCNCC2)Cc2cc(O)cc(O)c21 [compound 393],–,–
59,89,–,–,CC1CCCN(C(=O)CON=C2/C=C/CC/C=C/CCOC(=O)c3c(O)cc(O)cc3C2)C1 (centres unmarked) [compound 373],–,–
–,–,327,2870,CC(C)(C)OC(=O)N1CCN(C(=O)CON=C2/C=C/CC/C=C/CCOC(=O)c3c(O)cc(O)cc3C2)CC1 [compound 392],–,–
170,2040,–,–,CC1/C=C/CCOC(=O)c2c(O)cc(O)c(Cl)c2CC(=NOCC(=O)N2CCCCC2)/C=C/C1 (centres unmarked) [compound 366],–,–
–,–,3030,> 10000,O=C1OC/C=C/CCCCC(=NOCC(=O)N2CCCCC2)Cc2cc(O)cc(O)c21 [compound 353],–,–
–,–,511,9480,O=C1OCC/C=C/CCCCC(=NOCC(=O)N2CCCCC2)Cc2c(Cl)c(O)cc(O)c21 [compound 356],–,–
94,549,–,–,CC(C)CN(CC(C)C)C(=O)CON=C1/C=C/CC/C=C/CCOC(=O)c2c(O)cc(O)cc2C1 [compound 390],–,–
337,2830,–,–,CC1CN(C(=O)CON=C2/C=C/CC/C=C/CCOC(=O)c3c(O)cc(O)cc3C2)CC(C)O1 (centres unmarked) [compound 391],–,–
–,450,–,–,"C[C@@H]1C[C@H]2O[C@@H]2/C=C\C=C\C(=O)Cc2c(Cl)c(O)cc(O)c2C(=O)O1 [radicicol, reference compound]",–,–
96,1580,–,–,CCCC1C/C=C/CC/C=C/C(=NOCC(=O)N2CCCCC2)Cc2c(Cl)c(O)cc(O)c2C(=O)O1 (centres unmarked) [compound 394],–,–
2990,> 10000,–,–,O=C1OCC/C=C/CC/C=C/C(=NOCC(=O)N(Cc2ccccc2)Cc2ccccc2)Cc2cc(O)cc(O)c21 [compound 381],–,–
373,8160,–,–,COC(=O)CON=C1/C=C/CC/C=C/CCOC(=O)c2c(O)cc(O)cc2C1 [compound 385],–,–
46,105,–,–,C/C1=C\C(=NOCC(=O)N2CCCCC2)Cc2cc(O)cc(O)c2C(=O)OCC/C=C/CC1 [compound 349],–,–
–,–,543,2960,CC1/C=C/CCCOC(=O)c2c(O)cc(O)cc2CC(=NOCC(=O)N2CCCCC2)/C=C/C1 (centres unmarked) [compound 361],–,–
118,568,–,–,CC1C=CC(C)N1C(=O)CON=C1/C=C/CC/C=C/CCOC(=O)c2c(O)cc(O)cc2C1 (centres unmarked) [compound 387],–,–

Compound,IC50 (HSP90α; HSP90 affinity) [nM],IC50 (Her-2 (HSP90 client); [1]) [nM],IC50 (HSP90α; read-out: HSP90 affinity) [nM],IC50 (Her-2 (HSP90 client); [2]) [nM],IC50 (SKBr3) [nM],IC50 (HCC1954) [nM]
"C[C@@H]1C/C=C/CC/C=C/C(=O)Cc2c(Cl)c(O)cc(O)c2C(=O)O1 [pochonin D, Pochonin D, reference compound]",–,–,360,3500,–,–
